Laboratory results published in US12528802B2, “Heterocyclic compound” (Takeda Pharmaceutical Company Limited, priority 2019, dated 2026).

These molecules were tested against T1, glucosylceramide synthase (Homo sapiens, UniProt Q16739) (assay: Glucosylceramide synthase (GCS) enzyme assay, microsome fraction, C8 glucosylceramide quantified by Rapidfire MS/MS). Conditions: test compound 10 μM; 1.7 μM UDP-glucose, 3 μM C8 ceramide; room temperature 60 min; read-out: GCS enzyme inhibitory rate at 10 μM (%) (% of control).
T1 construct: made in house; host or cells: Expi293F cells (transient expression, pcDNA3.3-TOPO vector); microsome fraction used as enzyme source
T1 sequence (Q16739 1-394): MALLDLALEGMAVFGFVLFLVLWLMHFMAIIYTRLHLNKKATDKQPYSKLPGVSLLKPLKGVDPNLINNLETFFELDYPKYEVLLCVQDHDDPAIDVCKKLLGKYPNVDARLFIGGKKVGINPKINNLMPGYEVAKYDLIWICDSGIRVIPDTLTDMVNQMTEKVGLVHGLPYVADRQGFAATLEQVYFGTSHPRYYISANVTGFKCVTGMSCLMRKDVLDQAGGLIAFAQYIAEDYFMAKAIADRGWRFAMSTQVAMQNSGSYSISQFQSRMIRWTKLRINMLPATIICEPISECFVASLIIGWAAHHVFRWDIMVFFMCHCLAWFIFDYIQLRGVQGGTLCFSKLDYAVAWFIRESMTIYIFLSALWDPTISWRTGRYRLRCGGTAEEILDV
Type: biochemical
Summary of the method: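 Test compound, 10 μM final, was run against human GCS from transfected Expi293F microsome fractions, using substrate solution of 6 μM C8 ceramide (in DOPC liposomes) plus 3.4 μM UDP-glucose, pH 7.5 Tris buffer, 60 min, room temperature. Product C8 glucosylceramide measured by Rapidfire MS/MS against an internal standard, % inhibition referenced to no-enzyme and DMSO wells.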

Row | SMILES | inhibition at 10 µM
1 | O=C1c2ccnc(-c3ccccc3OCC(F)(F)F)c2CN1c1cnn(CC2(F)CC2)c1 [Example 248, 2-{1-[(1-fluorocyclopropyl)methyl]-1H-pyrazol-4-yl}-4-[2-(2,2,2-trifluoroethoxy)phenyl]-2,3-dihydro-1H-pyrrolo[3,4-c]pyridin-1-one] | 99%
2 | O=C1c2ccnc(-c3ccc(F)cc3OCC(F)(F)F)c2CN1c1ccc(F)cn1 [Example 59, 2-(5-fluoropyridin-2-yl)-4-[4-fluoro-2-(2,2,2-trifluoroethoxy)phenyl]-2,3-dihydro-1H-pyrrolo[3,4-c]pyridin-1-one] | 88%
3 | CCC(=O)c1ccc(N2Cc3c(ccnc3-c3ccc(F)cc3OCC(F)(F)F)C2=O)cc1 [Example 189, 4-[4-fluoro-2-(2,2,2-trifluoroethoxy)phenyl]-2-(4-propanoylphenyl)-2,3-dihydro-1H-pyrrolo[3,4-c]pyridin-1-one] | 94%
4 | O=C1c2ccc(=O)n(-c3ccccc3OCC(F)(F)F)c2CN1c1ccc(OC(F)(F)F)cc1 [Example 149, 1-[2-(2,2,2-trifluoroethoxy)phenyl]-6-[4-(trifluoromethoxy)phenyl]-6,7-dihydro-1H-pyrrolo[3,4-b]pyridine-2,5-dione] | 99%
5 | CC(C)(O)C(F)(F)c1ccc(N2Cc3c(ccnc3-c3ccc(F)cc3OCC(F)(F)F)C2=O)cn1 [Example 291, 2-[6-(1,1-difluoro-2-hydroxy-2-methylpropyl)pyridin-3-yl]-4-[4-fluoro-2-(2,2,2-trifluoroethoxy)phenyl]-2,3-dihydro-1H-pyrrolo[3,4-c]pyridin-1-one] | 79%
6 | CC(C)(F)c1cc2c(c(-c3ccc(F)cc3OCC(F)(F)F)n1)CN(c1ccc(F)cc1)C2=O [Example 385, 2-(4-fluorophenyl)-6-(2-fluoropropan-2-yl)-4-[4-fluoro-2-(2,2,2-trifluoroethoxy)phenyl]-2,3-dihydro-1H-pyrrolo[3,4-c]pyridin-1-one] | 99%
7 | CC(C)(O)c1ccc(N2Cc3c(cc(C(C)(C)O)nc3-c3ccccc3OCC(F)F)C2=O)cn1 [Example 363, 4-[2-(2,2-difluoroethoxy)phenyl]-6-(2-hydroxypropan-2-yl)-2-[6-(2-hydroxypropan-2-yl)pyridin-3-yl]-2,3-dihydro-1H-pyrrolo [3,4-c]pyridin-1-one] | 97%
8 | O=C1c2ccnc(-c3ccccc3OCC(F)(F)F)c2CN1c1ccc(C2(F)COC2)cc1 [Example 214, 2-[4-(3-fluorooxetan-3-yl)phenyl]-4-[2-(2,2,2-trifluoroethoxy)phenyl]-2,3-dihydro-1H-pyrrolo[3,4-c]pyridin-1-one] | 100%
9 | N#Cc1ccc(N2Cc3ccnc(-c4ccc(F)cc4OCC(F)(F)F)c3C2)nc1 [Example 156, 6-{4-[4-fluoro-2-(2,2,2-trifluoroethoxy)phenyl]-1,3-dihydro-2H-pyrrolo[3,4-c]pyridin-2-yl}pyridine-3-carbonitrile] | 94%
10 | Cc1cncc(OCC(F)(F)F)c1-c1nccc2c1CN(c1ccc(OC(F)F)cc1)C2=O [Example 175, 2-[4-(difluoromethoxy)phenyl]-4-[3-methyl-5-(2,2,2-trifluoroethoxy)pyridin-4-yl]-2,3-dihydro-1H-pyrrolo[3,4-c]pyridin-1-one ditrifluoroacetate] | 100%
11 | Cc1cc2c(c(-c3ccccc3OCC(F)(F)F)n1)CN(c1ccc(OCC3(O)CC3)cc1)C2=O [Example 375, 2-{4-[(1-hydroxycyclopropyl)methoxy]phenyl}-6-methyl-4-[2-(2,2,2-trifluoroethoxy)phenyl]-2,3-dihydro-1H-pyrrolo[3,4-c]pyridin-1-one] | 100%
12 | O=C1C2=C(CN1c1ccc(OCC(F)(F)F)cc1)C(c1ccc(F)cc1OCC(F)(F)F)=NCCN2 [Example 176, 5-[4-fluoro-2-(2,2,2-trifluoroethoxy)phenyl]-7-[4-(2,2,2-trifluoroethoxy)phenyl]-2,3,6,7-tetrahydropyrrolo[3,4-e][1,4]diazepin-8(1H)-one] | 100%
13 | CC(O)(c1ccc(N2Cc3c(ccnc3-c3ccccc3OCC(F)(F)F)C2=O)cc1)C(F)(F)F (racemic) [Example 295, rac-4-[2-(2,2,2-trifluoroethoxy)phenyl]-2-[4-(1,1,1-trifluoro-2-hydroxypropan-2-yl)phenyl]-2,3-dihydro-1H-pyrrolo[3,4-c]pyridin-1-one] | 100%
14 | CC(C)(O)COc1ccc(N2Cc3c(ccnc3-c3ccccc3OCC(F)F)C2=O)nc1 [Example 306, 4-[2-(2,2-difluoroethoxy)phenyl]-2-[5-(2-hydroxy-2-methylpropoxy)pyridin-2-yl]-2,3-dihydro-1H-pyrrolo [3,4-c]pyridin-1-one] | 99%

Further lines, results first:

Row | inhibition at 10 µM | SMILES
15 | 96% | Cc1ccc(N2Cc3c(ccnc3-c3ccc(F)cc3OCC(F)(F)F)C2=O)cn1 [Example 89, 4-[4-fluoro-2-(2,2,2-trifluoroethoxy)phenyl]-2-(6-methylpyridin-3-yl)-2,3-dihydro-1H-pyrrolo[3,4-c]pyridin-1-one]
16 | 100% | Cc1cc2c(c(-c3ccccc3OCC(F)(F)F)n1)CN(c1ccc(OCC3(OC4CCCCO4)CC3)cc1)C2=O (racemic) [Example 374, rac-6-methyl-2-[4-({1-[(oxan-2-yl)oxy]cyclopropyl}methoxy)phenyl]-4-[2-(2,2,2-trifluoroethoxy)phenyl]-2,3-dihydro-1H-pyrrolo[3,4-c]pyridin-1-one]
17 | 88% | CC(C)(O)c1ccc(N2Cc3c(ccnc3-c3ccc(F)cc3OCC(F)(F)F)C2=O)cn1 [Example 197, 4-[4-fluoro-2-(2,2,2-trifluoroethoxy)phenyl]-2-[6-(2-hydroxypropan-2-yl)pyridin-3-yl]-2,3-dihydro-1H-pyrrolo[3,4-c]pyridin-1-one]
18 | 99% | CC(C)(O)C(F)(F)c1ccc(N2Cc3c(ccnc3-c3ccccc3OCC(F)(F)F)C2=O)cc1 [Example 340, 2-[4-(1,1-difluoro-2-hydroxy-2-methylpropyl)phenyl]-4-[2-(2,2,2-trifluoroethoxy)phenyl]-2,3-dihydro-1H-pyrrolo[3,4-c]pyridin-1-one]
19 | 89% | O=C1c2ccnc(-c3ccc(F)cc3OCC(F)(F)F)c2CN1c1ccc(C2(O)COC2)c(F)c1 [Example 220, 2-[3-fluoro-4-(3-hydroxyoxetan-3-yl)phenyl]-4-[4-fluoro-2-(2,2,2-trifluoroethoxy)phenyl]-2,3-dihydro-1H-pyrrolo[3,4-c]pyridin-1-one]
20 | 99% | O=C1c2ccnc(-c3ccc(F)cc3OCC(F)(F)F)c2CN1c1ccc(C2(O)CCOCC2)cn1 [Example 257, 4-[4-fluoro-2-(2,2,2-trifluoroethoxy)phenyl]-2-[5-(4-hydroxyoxan-4-yl)pyridin-2-yl]-2,3-dihydro-1H-pyrrolo[3,4-c]pyridin-1-one]
21 | 99% | CS(=O)(=O)c1ccc(N2Cc3cnn(-c4ccccc4OCC(F)(F)F)c3C2)cc1 [Example 207, 5-[4-(methanesulfonyl)phenyl]-1-[2-(2,2,2-trifluoroethoxy)phenyl]-1,4,5,6-tetrahydropyrrolo[3,4-c]pyrazole]
22 | 99% | O=C1c2ccnc(-c3ccncc3OCC(F)(F)F)c2CN1c1ccc(C2(F)COC2)cc1 [Example 294, 2-[4-(3-fluorooxetan-3-yl)phenyl]-4-[3-(2,2,2-trifluoroethoxy)pyridin-4-yl]-2,3-dihydro-1H-pyrrolo [3,4-c]pyridin-1-one]
23 | 51% | Cn1nc(N2Cc3c(ccnc3-c3ccc(F)cc3OCC(F)(F)F)C2=O)cc1C1CC1 [Example 239, 2-(5-cyclopropyl-1-methyl-1H-pyrazol-3-yl)-4-[4-fluoro-2-(2,2,2-trifluoroethoxy)phenyl]-2,3-dihydro-1H-pyrrolo[3,4-c]pyridin-1-one]
24 | 99% | O=C1c2ccnc(-c3ccc(F)cc3OCCOC(F)(F)F)c2CN1c1ccc(OC(F)F)nc1 [Example 174, 2-[6-(difluoromethoxy)pyridin-3-yl]-4-{4-fluoro-2-[2-(trifluoromethoxy)ethoxy]phenyl}-2,3-dihydro-1H-pyrrolo[3,4-c]pyridin-1-one]
25 | 98% | O=C1c2ccnc(-c3ccc(F)cc3OCC(F)(F)F)c2CN1c1ccc(C2(O)CCOCC2)c(F)c1 [Example 219, 2-[3-fluoro-4-(4-hydroxyoxan-4-yl)phenyl]-4-[4-fluoro-2-(2,2,2-trifluoroethoxy)phenyl]-2,3-dihydro-1H-pyrrolo[3,4-c]pyridin-1-one]
26 | 99% | O=C1c2ccnc(-c3ccc(F)cc3OCC(F)(F)F)c2CN1c1ccc(C(O)C(F)F)cc1 (single isomer, unassigned) [Example 278, (R or S)-2-[4-(2,2-difluoro-1-hydroxyethyl)phenyl]-4-[4-fluoro-2-(2,2,2-trifluoroethoxy)phenyl]-2,3-dihydro-1H-pyrrolo[3,4-c]pyridin-1-one]
27 | 95% | COc1cc(C(=O)N2CCC2)ccc1-c1nccc2c1CN(c1ccc(OC(F)F)cc1)C2=O [Example 122, 4-[4-(azetidine-1-carbonyl)-2-methoxyphenyl]-2-[4-(difluoromethoxy)phenyl]-2,3-dihydro-1H-pyrrolo[3,4-c]pyridin-1-one]
